From patent US20260091086A1, “POLYPEPTIDE COMBINATIONS AND USES THEREOF” (MEDIMMUNE LIMITED, priority 2024, published 2026)
Numbered stars: 1 amine (or outer) side, 2 acyl side, 3 side chain; on linkers, the order of the positions; unused ones are H or OH. Bridge positions count the residues as written; N and C are the ends. Square brackets hold non-standard residues; d marks the D form. Side chains are listed from the residue outwards. Ends that are not written are not given here. * marks the point of attachment. C18 diacid = O=C(O)CCCCCCCCCCCCCCCCC(=O)*; γGlu = O=C(O)[C@H](CCC(=O)[*:2])N[*:1]; αMeF = C[C@](N)(Cc1ccccc1)C(=O)O

Tests used:
[1] = tested on: DIO male pair-housed rats; assay: Example 3 additional study: 28-day body weight, food intake and organ weights in DIO rats; assay type: in vivo, rat; details: 28 days SC daily
Method: (§1) Study design: DIO male pair-housed rats fed a 32.5% high-fat diet (D12266B) for 7 weeks reached a mean body weight (BW) of ˜595 g. Rats were dosed SC daily for 28 days with vehicle (Vh), GLP-1/GCG dual agonist (1.5 or 5 nmol/kg), LAA (2.5 or 7.5 nmol/kg), or combination (1.5+2.5 nmol/kg, 1.5+7.5 nmol/kg, 5+2.5 nmol/kg, or 5+7.5 nmol/kg, respectively). Food intake (FI) and BW were measured daily. In chow fed lean rats, gastric emptying (GE) was measured via X-ray fluoroscopic quantification following SC injections of Vh, GLP-1/GCG dual agonist at 1, 3, or 10 nmol/kg or LAA at 1, 3, or 10 nmol/kg. In a subsequent acute GE study, lean rats received a single dose of Vh, GLP-1/GCG dual agonist (2 nmol/kg), LAA (2 nmol/kg) or GLP-1/GCG dual agonist+LAA combination (2+2 nmol/kg). In this experiment, the LAA was that of SEQ ID NO: 11, and the GLP-1/GCG dual-agonist was cotadutide.

Wistar Han rats = assay: Example 4: 3-month subcutaneous study, body weight; assay type: in vivo, rat; details: for Body Weight Comparison, Day 92 vs. Control Group 1 Day 92 / Body Weight Gain (Day 92 vs Day −1) / Mean Body Weight at Day 92: dose levels 2000/0, Group 4
Method: Study Design: Male (9-11 weeks of age) and female (10-11 weeks of age) Wistar Han rats were SC administered with Vehicle/Vehicle (group 1—for LAA of SEQ ID NO: 11 and GLP-1/GCG of SEQ ID NO: 35), LAA of SEQ ID NO: 11 and GLP-1/GCG of SEQ ID NO: 35 (group 2—500 and 5 μg/kg respectively), LAA of SEQ ID NO: 11 and GLP-1/GCG of SEQ ID NO: 35 (group 3—2000 and 5 μg/kg respectively), SEQ ID NO: 11 and Vehicle for SEQ ID NO: 35 (group 4—2000 μg/kg and 0 μg/kg respectively), or Vehicle for SEQ ID NO: 11 and SEQ ID NO: 35 (group 5—0 and 5 μg/kg respectively) daily for 91 days. Dosing for LAA of SEQ ID NO: 11 was dose escalated with group 2 receiving 250 μg/kg from day 1-5 and 500 μg/kg for duration of study, and groups 3 and 4 receiving 250 μg/kg SEQ ID NO: 11 from day 1-5, 500 μg/kg SEQ ID NO: 11 from days 7-13 and 2000 μg/kg for duration of study. There was a n=10/group per gender.

chow fed lean rats = assay: Example 3: acute gastric emptying by X-ray fluoroscopic quantification; assay type: in vivo, rat; details: acute SC
Method: as §1

DIO rat = assay: Example 3: repeat dose DIO rat gastric emptying study; assay type: in vivo; details: 2 nmol/kg monotherapy, beyond 7 days of treatment
Source text: Study Design: […] X-ray fluoroscopic quantification was used to assess gastric emptying. In this experiment, the LAA was that of SEQ ID NO: 11, and the GLP-1R agonist was semaglutide.

[2] = tested on: High-fat diet (DIO) fed rats; assay: Example 9: 4-week LAA or DACRA monotherapy in DIO rats; assay type: in vivo, rat; details: for BW reduction compared to vehicle / reduction of cumulative food intake: 4 weeks
Source text: Study 1 Design: High-fat diet (DIO) fed rats were used to profile LAA or DACRA monotherapy to evaluate food intake, body weight-lowering and body composition effects in a 4-week study. In this experiment, the LAA was that of SEQ ID NO: 11 and the DACRA was cagrilintide.

[3] = tested on: diet-induced obese (DIO) Sprague-Dawley rats; assay: Example 2: 28-day combination study in DIO rats (body weight, EchoMRI body composition); assay type: in vivo, rat; details: LAA 10 nmol/kg, GLP-1/GCG 5.4 nmol/kg or both
Method: Study Design: Male diet-induced obese (DIO) Sprague-Dawley rats were fed a high fat diet (45% fat, D12451; Research Diets) for 34 weeks prior to study start. […] Research Diets). […] Average body weight for all DIO rats at start of study was 722.4+10.1 grams. Body composition was measured by EchoMRI on day-7 and day 26. In this experiment, the LAA was that of SEQ ID NO: 11, and the GLP-1/GCG dual-agonist was cotadutide. Data reported as mean±standard error of the mean (SEM); data analysis performed using GraphPad Prism-statistical analysis performed using One-way ANOVA with Tukey ad hoc analysis.

DIO Sprague-Dawley rats [4] = assay: Example 6: treatment switch / add-on study after GLP-1RA lead-in; assay type: in vivo, rat; details: for body weight change, % of day 0 body weight: day 30
Method: Study Design: Male DIO Sprague-Dawley rats were fed a high-fat diet (32.5% kcal fat, D12266B; Research Diets) for approximately 8 weeks prior to study start. Rats were dosed SC for 15 days with Vehicle (n=16) or GLP-1RA (n=32) (5 nmol/kg) once-daily (QD). Beginning on day 16 rats initially treated with Vehicle either continued with Vehicle (n=8) or were switched to LAA (7.5 nmol/kg, n=8) administration. Rats initially receiving GLP-1RA treatment either continued with GLP-1RA, were switched to LAA (7.5 nmol/kg), were switched to Vehicle, or continued with GLP-1RA with addition of LAA treatment (7.5 nmol/kg) for duration of study (day 30), with n=8/group. Body weight was measured daily through-out study. Data reported as mean±standard error of the mean (SEM); data analysis performed using GraphPad Prism In this experiment, the LAA was that of SEQ ID NO: 11, and the GLP-1R agonist was semaglutide.

DIO Sprague-Dawley rats [5] = assay: Example 6 Study 2: 4-week LAA, GLP-1RA or both; assay type: in vivo, rat; details: QD SC 4 weeks; LAA 7.5 nmol/kg, GLP-1RA 5 nmol/kg, or both; FIG. 5H
Method: Study 2 Design: Male DIO Sprague-Dawley rats were injected QD SC with either vehicle, LAA 7.5 nmol/kg, GLP-1RA 5 nmol/kg, or both, for 4 weeks. Monotherapy doses were selected to achieve matching BW loss. BW and food intake were measured daily, and body composition was measured at baseline and end of study.

[6] = end of study, after initial GLP-1RA: GLP-1RA continued, switched to LAA, or Combination

## K(γE-γE-C18diacid)[CNTATC]ATQRLANFLRHSSNN(αMePhe)GPILPPTEVGSNTY-amide (K([γGlu-γGlu-C18 diacid])CNTATCATQRLANFLRHSSNN[αMeF]GPILPPTEVGSNTY-NH2; disulfide 2-7) [LAA]
[1]; LAA 2.5 nmol/kg
  Vh corrected BW change (BW gain): −9.4%
[1]; LAA 7.5 nmol/kg
  Vh corrected BW change (BW gain): −13.7%
[1]; monotherapy and combination groups
  Cumulative FI normalized to Vh: decreased in a dose-dependent manner
Wistar Han rats; both male and female, groups 2-5
  Body weight at study day 92 vs Vehicle: significantly lower
Wistar Han rats; female
  Body Weight Comparison, Day 92 vs. Control Group 1 Day 92: 89%
  Body Weight Gain (Day 92 vs Day −1): 110%
  Mean Body Weight at Day 92: 222.1 grams
Wistar Han rats; male
  Body Weight Comparison, Day 92 vs. Control Group 1 Day 92: 79%
  Body Weight Gain (Day 92 vs Day −1): 119%
  Mean Body Weight at Day 92: 319.2 grams
Chow fed lean rats; 1 nmol/kg
  GE AUC as % of Vehicle: 101%
Chow fed lean rats; 3 nmol/kg
  GE AUC as % of Vehicle: 34%
Chow fed lean rats; 10 nmol/kg
  GE AUC as % of Vehicle: 8%
DIO rat
  GE delay on repeat dosing: maintained GE delay beyond 7 days of treatment
[2]; 2.5 nmol/kg
  BW reduction compared to vehicle: −5.2±0.6%
  reduction of cumulative food intake: −14.3±1.2 % of vehicle
[2]; 10 nmol/kg
  BW reduction compared to vehicle: −9.7±0.7%
  reduction of cumulative food intake: −20.9±0.7 % of vehicle
[2]; end of study, 10 nmol/kg
  fat-mass loss: -28.0 ± 2.3 g
[2]; end of study, 10 nmol/kg, FIG. 8C
  proportion of body weight loss that was fat-mass specific: 100%
[2]; end of study, FIG. 8B
  lean mass: Lean mass was preserved in the LAA groups
[3]; SC QD, FIG. 1A
  body weight loss vs Vehicle: lost significantly more body weight than Vehicle treated rats
[3]; day 26
  fat mass change (EchoMRI): lost a significant amount of fat mass compared to Vehicle treatment
  lean mass change (EchoMRI): little effect on lean mass
DIO Sprague-Dawley rats [4]; FIG. 5E
  total lean mass at the end of the study: trend towards the animals switching to LAA therapy preserving the most lean mass
DIO Sprague-Dawley rats [4]; compared to discontinuing therapy at day 15, FIG. 5F
  fasting leptin levels at the end of the study: significantly reduced
DIO Sprague-Dawley rats [4]; switched from GLP-1RA to LAA 7.5 nmol/kg on day 16
  body weight change, % of day 0 body weight: −3.4%
DIO Sprague-Dawley rats [4]; switched from Vehicle to LAA 7.5 nmol/kg on day 16
  body weight change, % of day 0 body weight: +1.1%
DIO Sprague-Dawley rats [4]; [6]
  Fat: 103.70 g
  Fat, Δ from Control: 41.95 g
DIO Sprague-Dawley rats [4]; end of study, switched from GLP-1RA to LAA
  change in body weight normalized to Vehicle: −12%
DIO Sprague-Dawley rats [4]; end of study, switched from VH to LAA
  change in body weight normalized to Vehicle: −7.1%
DIO Sprague-Dawley rats [4]; end of study, vs group switched from GLP-1RA to Vehicle
  Fat, Δ from Vehicle: 27.21 g
DIO Sprague-Dawley rats [5]
  fat mass change from baseline: greater loss of fat mass than GLP-1RA monotherapy
